Data as given in patent publication US20080081041A1 (priority 2006, published 2008).
Like-named read-outs stand apart in the source and are kept apart here.

Columns and labels:
DU145 cells = test: DU145 cell killing, ATPlite assay (ATP production); type: cell-based, human; details: for effect on sensitivity / resistance of the cells to mitoxantrone / timecourse of cell killing / EC50: DU145 cells; for effect on sensitivity / resistance of the cells to mitoxantrone: 48 and 72 hour timepoints; for EC50: Homo sapiens, DU-145, read-out: EC50 values for killing by Mitoxantrone, CNTO 328 at 20 μg/mL where combined
Method: DU145 cells were established from a metastatic central nervous system lesion of androgen-independent prostate carcinoma (Stone, K. R. et al. 1978 Int J Cancer 21: 274-81). […] Thus, study of direct interactions of chemotherapy agents and IL6 modulators can be studied on prostate tumor cells in vitro.
DU145 cells were plated at 500 cells/well in a 96 well plate and allowed to adhere for several hours. Treatments were added and plates were incubated at 37° C. for either 24, 48, or 72 hours. […] CNTO 328 was tested at 20 μg/mL and IL-6 was tested at both 10 and 50 ng/mL. Plates were analyzed for ATP production using the ATPlite assay from Perkin Elmer.

metastatic HRPC = details: docetaxel every 3 weeks; cited from earlier work
[1] = system: DU-145 human prostate xenograft; test: DU-145 human prostate xenograft in nude mice, time to tumor volume of 1000 mm3; type: in vivo; details: for % TGD (tumor growth delay): [(T-C)/C]×100, versus PBS Group 1; for tumor growth delay vs. control (in words): monotherapy versus Group 1; for T-C (difference between median TTE of treated versus control group): same dosing, versus PBS Group 1; for Median TTE: time to tumor volume 1000 mm3, CNTO328 10 mg/Kg i.p. biweekly, Mitoxantrone 0.75 mg/Kg i.v. once per D for 5 D, n=8
Text: Nude mice were implanted subcutaneously with 1 mm3 fragments of DU-145 human prostate xenograft tissue. […] Dosing was initiated on Day 1 as follows: […] The study endpoint was the time taken for tumors to reach a volume of 1000 mm3 at which time each animal was euthanized. Days in Progress=56. Calculation using the TTE=time to endpoint are: T−C=difference between median TTE (days) of treated versus control group, TGD=tumor growth delay. % TGD=[(T-C)/C]×100. The Logrank test was used to analyze the significance of the differences between the TTE values of treated and control groups. Two-tailed statistical analyses were conducted at significance level P-0.05. Statistical Significance: ns=not significant, **=P<0.01 compared to group indicated.

human prostate tumor = details: human prostate tumor-bearing mice; cited from earlier work

Row | Molecule | effect on sensitivity / resistance of the cells to mitoxantrone (DU145 cells) | % TGD (tumor growth delay) [1] [%] | tumor growth delay vs. control (in words) [1] | T-C (difference between median TTE of treated versus control group) [1] [days] | Median TTE [1] [days] | other results
1 | IL-6: 22-27 kDa secreted glycoprotein cytokine, added exogenously | did not increase resistance to the effect of mitoxantrone |  |  |  |  | 
2 | CC(=O)O[C@@]12CO[C@@H]1C[C@H](O)[C@@]1(C)C(=O)[C@H](O)C3=C(C)[C@@H](OC(=O)[C@H](O)[C@@H](NC(=O)OC(C)(C)C)c4ccccc4)C[C@@](O)([C@@H](OC(=O)c4ccccc4)[C@H]21)C3(C)C [docetaxel] |  |  |  |  |  | improvement of survival over the reference M/P regimen (metastatic HRPC): 2-2.5 months
3 | O=C1c2c(O)ccc(O)c2C(=O)c2c(NCCNCCO)ccc(NCCNCCO)c21 [Mitoxantrone, 1,4-Dihydroxy-5,8-bis[[2-[(2-hydroxyethyl)amino]ethyl]amino]-9,10-anthracenedione] |  | 29 | no significant tumor growth delay | 6.2 | 27.7 | mean body weight nadir ([1]; day 10): −5%; timecourse of cell killing (DU145 cells; 48 and 72 hours (FIG. 1)): greatest reduction in cell survival; timecourse of cell killing (DU145 cells; 24 hours (FIG. 1)): minimal cell death; EC50 (DU145 cells; 48 Hours): 23 nM; EC50 (DU145 cells; 72 Hours): 10.8 nM
4 | CNTO 328: an anti-IL-6 monoclonal antibody, derived from the CLB-8 anti-IL-6 antibody (antibody, chains of the INN, looked up, V domains shown) VH: EVQLVESGGKLLKPGGSLKLSCAASGFTFSSFAMSWFRQSPEKRLEWVAEISSGGSYTYYPDTVTGRFTISRDNAKNTLYLEMSSLRSEDTAMYYCARGLWGYYALDYWGQGTSVTVSS VL: QIVLIQSPAIMSASPGEKVTMTCSASSSVSYMYWYQQKPGSSPRLLIYDTSNLASGVPVRFSGSGSGTSYSLTISRMEAEDAATYYCQQWSGYPYTFGGGTKLEIK | does not significantly alter the sensitivity of the cells to mitoxantrone | −21 | no significant tumor growth delay | -4.6 | 16.9 | effect of monotherapy on tumor and survival (human prostate tumor): block conversion to androgen independent growth, induce tumor apoptosis, and prolong survival; proliferation of the DU145 cells (DU145 cells; agent alone (not shown)): ineffective at reducing proliferation
